Results reported in patent US20130269064A1, “INSECTICIDAL COMPOUNDS” (SYNGENTA PARTICIPATIONS AG, priority 2010, published 2013).

What follows are compounds tested on Spodoptera littoralis (assay: Spodoptera littoralis (Egyptian cotton leafworm) cotton leaf disc test). Conditions: foliar, 72 h, 200 ppm sprayed on cotton leaf discs, 5 L1 larvae, mortality, feeding behaviour, growth regulation 3 DAT.
Assay type: in vivo
Text: Spodoptera littoralis (Egyptian Cotton Leafworm): Cotton leaf discs were placed on agar in a 24-well microtiter plate and sprayed with test solutions at an application rate of 200 ppm. After drying, the leaf discs were infested with 5 L1 larvae. The samples were checked for mortality, feeding behaviour, and growth regulation 3 days after treatment (DAT).

SMILES | pest or weed control at 200 ppm [%]
Cn1nc(C(F)(F)C(F)(F)F)c(C(F)(F)F)c1NC(=O)c1cccc(NC(=O)c2cccc(F)c2F)c1 [Compound D21] | ≥ 80
Cn1nc(C(F)(F)C(F)(F)F)c(C(F)(F)F)c1NC(=O)c1ccc(C#N)c(NC(=O)c2ccccc2)c1 [Compound A2] | ≥ 80
Cn1nc(C(F)(F)C(F)(F)F)c(C(F)(F)F)c1NC(=O)c1cccc(NC(=O)c2ccccc2)c1 [Compound D16] | ≥ 80
Cn1nc(C(F)(F)C(F)(F)F)c(C(F)(F)F)c1NC(=O)c1cccc(NC(=O)c2ccc(F)cc2F)c1 [Compound D22] | ≥ 80
Cc1cc(F)ccc1C(=O)Nc1cc(C(=O)Nc2c(C(F)(F)F)c(C(F)(F)C(F)(F)F)nn2C)ccc1Cl [Compound E7] | ≥ 80
Cn1nc(C(F)(F)C(F)(F)F)c(C(F)(F)F)c1NC(=O)c1cccc(NC(=O)c2ccc(C(F)(F)F)cc2)c1 [Compound D13] | ≥ 80
Cn1nc(C(F)(F)C(F)(F)F)c(C(F)(F)F)c1NC(=O)c1cccc(NC(=O)c2ccccc2Cl)c1 [Compound D3] | ≥ 80
Cn1nc(C(F)(F)C(F)(F)F)c(C(F)(F)F)c1NC(=O)c1cccc(NC(=O)c2ccc([N+](=O)[O-])cc2)c1F [Compound B5] | ≥ 80
Cn1nc(C(F)(F)C(F)(F)F)c(C(F)(F)F)c1NC(=O)c1cccc(NC(=O)c2ccccc2F)c1 [Compound D1] | ≥ 80
Cn1nc(C(F)(F)C(F)(F)F)c(C(F)(F)F)c1NC(=O)c1cccc(NC(=O)c2ccc(C#N)cc2)c1F [Compound B4] | ≥ 80
Cn1nc(C(F)(F)C(F)(F)F)c(C(F)(F)F)c1NC(=O)c1ccc(Cl)c(NC(=O)c2ccc(F)cc2Cl)c1 [Compound E19] | ≥ 80

These compounds were tested on Tetranychus urticae (assay: Tetranychus urticae (two-spotted spider mite) bean leaf disc test). Conditions: foliar, 192 h, 200 ppm sprayed on bean leaf discs, mixed ages, 8 days, egg, larval and adult mortality.
Assay type: in vivo
Text: Tetranychus urticae (Two-Spotted Spider Mite): Bean leaf discs on agar in 24-well microtiter plates were sprayed with test solutions at an application rate of 200 ppm. After drying, the leaf discs are infested with mite populations of mixed ages. 8 days later, discs are checked for egg mortality, larval mortality, and adult mortality.

SMILES | pest or weed control at 200 ppm [%]
Cc1cc(F)ccc1C(=O)Nc1cc(C(=O)Nc2c(C(F)(F)F)c(C(F)(F)C(F)(F)F)nn2C)ccc1Cl [Compound E7] | ≥ 80
Cn1nc(C(F)(F)C(F)(F)F)c(C(F)(F)F)c1NC(=O)c1cccc(NC(=O)c2ccc([N+](=O)[O-])cc2)c1F [Compound B5] | ≥ 80
Cn1nc(C(F)(F)C(F)(F)F)c(C(F)(F)F)c1NC(=O)c1cccc(NC(=O)c2ccc(C#N)cc2)c1F [Compound B4] | ≥ 80
Cn1nc(C(F)(F)C(F)(F)F)c(C(F)(F)F)c1NC(=O)c1ccc(Cl)c(NC(=O)c2ccc(F)cc2Cl)c1 [Compound E19] | ≥ 80

The compounds below were run on Plutella xylostella (assay: Plutella xylostella (diamond back moth) artificial diet test). Conditions: 144 h, 200 ppm (concentration in well 18 ppm), L2 larvae, 6 days, larval mortality and growth regulation.
Assay type: in vivo
Experimental: Plutella xylostella (Diamond Back Moth): A 24-well microtiter plate (MTP) with artificial diet was treated with test solutions at an application rate of 200 ppm (concentration in well 18 ppm) by pipetting. After drying, the MTP's were infested with L2 larvae (7-12 per well). After an incubation period of 6 days, samples were checked for larval mortality and growth regulation.

SMILES | pest or weed control at 200 ppm [%]
Cn1nc(C(F)(F)C(F)(F)F)c(C(F)(F)F)c1NC(=O)c1cccc(NC(=O)c2cccc(F)c2F)c1 [Compound D21] | ≥ 80
Cn1nc(C(F)(F)C(F)(F)F)c(C(F)(F)F)c1NC(=O)c1ccc(C#N)c(NC(=O)c2ccccc2)c1 [Compound A2] | ≥ 80
Cn1nc(C(F)(F)C(F)(F)F)c(C(F)(F)F)c1NC(=O)c1cccc(NC(=O)c2ccccc2)c1 [Compound D16] | ≥ 80
Cn1nc(C(F)(F)C(F)(F)F)c(C(F)(F)F)c1NC(=O)c1cccc(NC(=O)c2ccc(F)cc2F)c1 [Compound D22] | ≥ 80
Cc1cc(F)ccc1C(=O)Nc1cc(C(=O)Nc2c(C(F)(F)F)c(C(F)(F)C(F)(F)F)nn2C)ccc1Cl [Compound E7] | ≥ 80
Cn1nc(C(F)(F)C(F)(F)F)c(C(F)(F)F)c1NC(=O)c1cccc(NC(=O)c2ccc(C(F)(F)F)cc2)c1 [Compound D13] | ≥ 80
Cn1nc(C(F)(F)C(F)(F)F)c(C(F)(F)F)c1NC(=O)c1cccc(NC(=O)c2ccccc2Cl)c1 [Compound D3] | ≥ 80
Cn1nc(C(F)(F)C(F)(F)F)c(C(F)(F)F)c1NC(=O)c1cccc(NC(=O)c2ccc([N+](=O)[O-])cc2)c1F [Compound B5] | ≥ 80
Cn1nc(C(F)(F)C(F)(F)F)c(C(F)(F)F)c1NC(=O)c1cccc(NC(=O)c2ccccc2F)c1 [Compound D1] | ≥ 80
Cn1nc(C(F)(F)C(F)(F)F)c(C(F)(F)F)c1NC(=O)c1cccc(NC(=O)c2ccc(C#N)cc2)c1F [Compound B4] | ≥ 80
Cn1nc(C(F)(F)C(F)(F)F)c(C(F)(F)F)c1NC(=O)c1ccc(Cl)c(NC(=O)c2ccc(F)cc2Cl)c1 [Compound E19] | ≥ 80

Each compound was assayed on Heliothis virescens (assay: Heliothis virescens (tobacco budworm) egg/artificial diet test). Conditions: 96 h, 200 ppm (concentration in well 18 ppm), eggs 0-24 h old on artificial diet, 4 days, egg mortality, larval mortality, growth regulation.
Assay type: in vivo
Experimental: Heliothis virescens (Tobacco Budworm): Eggs (0-24 h old) were placed in 24-well microtiter plate on artificial diet and treated with test solutions at an application rate of 200 ppm (concentration in well 18 ppm) by pipetting. After an incubation period of 4 days, samples were checked for egg mortality, larval mortality and growth regulation.

SMILES | pest or weed control at 200 ppm [%]
Cn1nc(C(F)(F)C(F)(F)F)c(C(F)(F)F)c1NC(=O)c1cccc(NC(=O)c2cccc(F)c2F)c1 [Compound D21] | ≥ 80
Cn1nc(C(F)(F)C(F)(F)F)c(C(F)(F)F)c1NC(=O)c1ccc(C#N)c(NC(=O)c2ccccc2)c1 [Compound A2] | ≥ 80
Cn1nc(C(F)(F)C(F)(F)F)c(C(F)(F)F)c1NC(=O)c1cccc(NC(=O)c2ccc(F)cc2F)c1 [Compound D22] | ≥ 80
Cc1cc(F)ccc1C(=O)Nc1cc(C(=O)Nc2c(C(F)(F)F)c(C(F)(F)C(F)(F)F)nn2C)ccc1Cl [Compound E7] | ≥ 80
Cn1nc(C(F)(F)C(F)(F)F)c(C(F)(F)F)c1NC(=O)c1cccc(NC(=O)c2ccc(C(F)(F)F)cc2)c1 [Compound D13] | ≥ 80
Cn1nc(C(F)(F)C(F)(F)F)c(C(F)(F)F)c1NC(=O)c1cccc(NC(=O)c2ccccc2Cl)c1 [Compound D3] | ≥ 80
Cn1nc(C(F)(F)C(F)(F)F)c(C(F)(F)F)c1NC(=O)c1cccc(NC(=O)c2ccc([N+](=O)[O-])cc2)c1F [Compound B5] | ≥ 80
Cn1nc(C(F)(F)C(F)(F)F)c(C(F)(F)F)c1NC(=O)c1cccc(NC(=O)c2ccccc2F)c1 [Compound D1] | ≥ 80
Cn1nc(C(F)(F)C(F)(F)F)c(C(F)(F)F)c1NC(=O)c1cccc(NC(=O)c2ccc(C#N)cc2)c1F [Compound B4] | ≥ 80
Cn1nc(C(F)(F)C(F)(F)F)c(C(F)(F)F)c1NC(=O)c1ccc(Cl)c(NC(=O)c2ccc(F)cc2Cl)c1 [Compound E19] | ≥ 80

What follows are compounds tested on Thrips tabaci (assay: Thrips tabaci (onion thrips) sunflower leaf disc test). Conditions: foliar, 168 h, 200 ppm sprayed on sunflower leaf discs, mixed ages, 7 days, mortality.
Assay type: in vivo
Experimental: Thrips tabaci (Onion Thrips): Sunflower leaf discs were placed on agar in a 24-well microtiter plate and sprayed with test solutions at an application rate of 200 ppm. After drying, the leaf discs were infested with an […] population of mixed ages. After an incubation period of 7 days, samples were checked for mortality.

SMILES | pest or weed control at 200 ppm [%]
Cn1nc(C(F)(F)C(F)(F)F)c(C(F)(F)F)c1NC(=O)c1cccc(NC(=O)c2cccc(F)c2F)c1 [Compound D21] | ≥ 80
Cn1nc(C(F)(F)C(F)(F)F)c(C(F)(F)F)c1NC(=O)c1ccc(C#N)c(NC(=O)c2ccccc2)c1 [Compound A2] | ≥ 80
Cn1nc(C(F)(F)C(F)(F)F)c(C(F)(F)F)c1NC(=O)c1cccc(NC(=O)c2ccccc2)c1 [Compound D16] | ≥ 80
Cn1nc(C(F)(F)C(F)(F)F)c(C(F)(F)F)c1NC(=O)c1cccc(NC(=O)c2ccc(F)cc2F)c1 [Compound D22] | ≥ 80
Cn1nc(C(F)(F)C(F)(F)F)c(C(F)(F)F)c1NC(=O)c1cccc(NC(=O)c2ccc(C(F)(F)F)cc2)c1 [Compound D13] | ≥ 80
Cn1nc(C(F)(F)C(F)(F)F)c(C(F)(F)F)c1NC(=O)c1cccc(NC(=O)c2ccccc2Cl)c1 [Compound D3] | ≥ 80
Cn1nc(C(F)(F)C(F)(F)F)c(C(F)(F)F)c1NC(=O)c1cccc(NC(=O)c2ccccc2F)c1 [Compound D1] | ≥ 80

Each compound was assayed on Diabrotica balteata (assay: Diabrotica balteata (corn root worm) artificial diet test). Conditions: 120 h, 200 ppm (concentration in well 18 ppm), L2 larvae, 5 days, larval mortality and growth regulation.
Assay type: in vivo
Experimental: Diabrotica balteata (Corn Root Worm): A 24-well microtiter plate (MTP) with artificial diet was treated with test solutions at an application rate of 200 ppm (concentration in well 18 ppm) by pipetting. After drying, the MTP's were infested with larvae (L2) (6-10 per well). After an incubation period of 5 days, samples were checked for larval mortality, and growth regulation.

SMILES | pest or weed control at 200 ppm [%]
Cn1nc(C(F)(F)C(F)(F)F)c(C(F)(F)F)c1NC(=O)c1cccc(NC(=O)c2cccc(F)c2F)c1 [Compound D21] | ≥ 80
Cn1nc(C(F)(F)C(F)(F)F)c(C(F)(F)F)c1NC(=O)c1ccc(C#N)c(NC(=O)c2ccccc2)c1 [Compound A2] | ≥ 80
Cn1nc(C(F)(F)C(F)(F)F)c(C(F)(F)F)c1NC(=O)c1cccc(NC(=O)c2ccccc2)c1 [Compound D16] | ≥ 80
Cn1nc(C(F)(F)C(F)(F)F)c(C(F)(F)F)c1NC(=O)c1cccc(NC(=O)c2ccc(F)cc2F)c1 [Compound D22] | ≥ 80
Cc1cc(F)ccc1C(=O)Nc1cc(C(=O)Nc2c(C(F)(F)F)c(C(F)(F)C(F)(F)F)nn2C)ccc1Cl [Compound E7] | ≥ 80
Cn1nc(C(F)(F)C(F)(F)F)c(C(F)(F)F)c1NC(=O)c1cccc(NC(=O)c2ccc(C(F)(F)F)cc2)c1 [Compound D13] | ≥ 80
Cn1nc(C(F)(F)C(F)(F)F)c(C(F)(F)F)c1NC(=O)c1cccc(NC(=O)c2ccccc2Cl)c1 [Compound D3] | ≥ 80
Cn1nc(C(F)(F)C(F)(F)F)c(C(F)(F)F)c1NC(=O)c1cccc(NC(=O)c2ccc([N+](=O)[O-])cc2)c1F [Compound B5] | ≥ 80
Cn1nc(C(F)(F)C(F)(F)F)c(C(F)(F)F)c1NC(=O)c1cccc(NC(=O)c2ccccc2F)c1 [Compound D1] | ≥ 80
Cn1nc(C(F)(F)C(F)(F)F)c(C(F)(F)F)c1NC(=O)c1cccc(NC(=O)c2ccc(C#N)cc2)c1F [Compound B4] | ≥ 80
Cn1nc(C(F)(F)C(F)(F)F)c(C(F)(F)F)c1NC(=O)c1ccc(Cl)c(NC(=O)c2ccc(F)cc2Cl)c1 [Compound E19] | ≥ 80
